Measurements reported in PMC8885877, “STAT3 inhibition suppresses adaptive survival of ALK-rearranged lung cancer cells through transcriptional modulation of apoptosis” (NPJ Precision Oncology, 2022).
pIC50: −log10 of the molar value.

Biological target: STAT3 (Homo sapiens, UniProt P40763)
Experiment: Alpha-based competitive binding assay with biotinylated recombinant STAT3 and FITC-labeled phospho-Tyr peptide
Source text: Alpha-based competitive binding assay with biotinylated recombinant STAT3 and FITC-labeled phospho-Tyr peptide on STAT3 | inhibited the binding of phospho-Tyr peptide to the SH2 domain of STAT3 in a concentration-dependent manner with IC50 values

Chain of STAT3 (P40763 2-770): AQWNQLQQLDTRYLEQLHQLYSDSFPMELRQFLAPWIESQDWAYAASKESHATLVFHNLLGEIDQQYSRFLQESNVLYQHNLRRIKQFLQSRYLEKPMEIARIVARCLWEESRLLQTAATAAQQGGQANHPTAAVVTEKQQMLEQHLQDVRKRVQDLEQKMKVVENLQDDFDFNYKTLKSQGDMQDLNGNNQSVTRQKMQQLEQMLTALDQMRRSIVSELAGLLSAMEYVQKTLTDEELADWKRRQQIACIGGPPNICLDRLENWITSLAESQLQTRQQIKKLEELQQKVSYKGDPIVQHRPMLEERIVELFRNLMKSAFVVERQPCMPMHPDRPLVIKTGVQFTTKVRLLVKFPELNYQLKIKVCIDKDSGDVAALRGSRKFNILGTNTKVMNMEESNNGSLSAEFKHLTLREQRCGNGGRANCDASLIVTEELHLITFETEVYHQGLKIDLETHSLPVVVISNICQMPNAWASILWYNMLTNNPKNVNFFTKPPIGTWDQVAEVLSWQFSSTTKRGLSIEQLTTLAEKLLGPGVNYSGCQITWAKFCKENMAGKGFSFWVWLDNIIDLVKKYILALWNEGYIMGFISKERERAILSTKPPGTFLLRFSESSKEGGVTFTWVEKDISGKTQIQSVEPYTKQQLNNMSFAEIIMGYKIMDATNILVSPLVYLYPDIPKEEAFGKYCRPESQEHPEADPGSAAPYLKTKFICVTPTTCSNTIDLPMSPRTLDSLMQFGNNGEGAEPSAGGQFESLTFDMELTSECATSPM

pIC50: 5.60
Substance: YHO-1701
